Laboratory results from patent US8623919B2, “Method of synthesizing S-allyl-cysteine analogues and their therapeutic application in treating myocardial infarction” (Fudan University, priority 2007, dated 2014).

Experiments:
rats following MI injury [1] = experiment: SOD activity in plasma of rats (sham or MI); format: in vivo, SD rats; settings: 50 mg/Kg/day intraperitoneal
Experimental: (§1) Animals were assigned and prepared the same as in Example 7, and dosages of SPRC and SAC were used the same in this example as in Example 7.
(§2) Serum CK levels were detected with diagnostic kit (NJBI, China) according to the instructions. LDH were determined calorimetrically with a spectrophotometer. Lipid peroxidation was measured in terms of MDA content using the thiobarbituric acid (TBA) assay. […] With regard to lipid peroxidation, the levels of MDA in MI groups increased at 48 h after myocardial infarction. […] (FIG. 14)

rats following MI injury [2] = experiment: ECG in rats following MI injury; format: in vivo, SD rats; settings: 50 mg/Kg/day, day 10, 48 hr after the induction of MI
Experimental: SPRC and SAC were dissolved in saline (vehicle). Male SD rats (weight 200-250 g) were randomly assigned to […] treatment groups: group (1) Sham group: Sham-treated with saline (n=4), (2) Sham+SPRC group: Sham-treated with SPRC (50 mg/Kg/day) (n=4), (3) Sham+SAC group: Sham-treated with SAC (50 mg/Kg/day) (n=4), (4) MI group: MI treated with saline (n=8), (5) MI+SPRC group: MI treated with SPRC (50 mg/Kg/day) (n=8), (6) MI+SAC group: MI treated with SAC (50 mg/Kg/day) (n=8). Rats were pre-treated for seven days with each SAC analogues respectively via an intraperitoneal injection once daily before they were used for MI model studies. […] Briefly, the rats were anesthetized with 7% choral hydrate (60 mg/kg intraperitoneal injection), endotracheally intubated and mechanically ventilated with room air, respiratory rate 100 breaths/min, tidal volume 2.5 ml with a rodent ventilator (DHX-150, China). ECG was recorded in the anaesthetized animal for a period of one minute using the Animal Mflab200 amplifier (Produced in China). A left thoracotomy was performed and the third intercostal space was exposed. […] Then incisions were sutured and the chests were closed. […] Forty eight hours after the surgery, ECG was recorded for each rat in each group. […] To evaluate the effect of SPRC and SAC on MI, infarct size were measured after TTC staining (FIG. 12).

H9c2 cells [3] = experiment: Endogenous H2S level in H2O2 injured H9c2 cells; format: cell-based; settings: SPRC treatments
Source text: (§3) Similar experiments are done on cultured H9c2 cardiac muscle cells groups with the same experiment condition and different dosages of SPRC treatments. The results of the experiments confirm that endogenous H2S level in H2O2 injured H9c2 cells is elevated by SPRC treatments. […] It is also observed that the apoptosis of hypoxic myocardial cells is decreased, the survival rate of the in H2O2 injured H9c2 cells is increased and the LDH releasing from the in H2O2 injured H9c2 cells are reduced by three dosages of SPRC treatment.

H9c2 cells [4] = experiment: Apoptosis of H9c2 cells, Hoechst and PI double stain; format: cell-based; settings: H2O2 injured H9c2; Hoechst 33342 and PI double stain
Experimental: H9c2 cells were cultured same as Example 12, the cells were then divided into the groups same as Example 12.
Cells were washed in PBS and then stained with Hoechst 33342 (10 μg/ml) and propidium iodide (10 μg/ml) for 10 min at 37° C. Cells were washed again with PBS and fixed with 3.7% paraformaldehyde (v/v). Each field of cells was photographed twice (magnification, ×400), using appropriate filters to examine and compare Hoechst 33342 and PI fluorescence staining in the same cells. […]. Apoptosis is of great damage to the structure and the function of the heart, which leads to heart failure.

Bax mRNA = experiment: RT-PCR of Bax mRNA in left ventricle; format: in vivo, SD rats; settings: MI rats, 50 mg/Kg/day, p<0.05
Source text: as §1
(§4) To further verify the effects of SPRC and SAC, the expressions of Bcl-2, Bax and CSE mRNA were accessed by RT-PCR (FIG. 17). An isoform of the CSE gene was detected (GenBank; access no. AY641456). The relative amounts of CSE mRNA in Left ventricular subjected to MI were increase 3.3-fold and 1.5-fold following SPRC and SAC exposure as compared to the MI group.

H9c2 cells [5] = experiment: LDH leakage of H9c2 cells injured by H2O2; format: cell-based; settings: for LDH Leakage: H2O2 200 μmol/L 2 hours
Experimental: H9c2 cells were cultured in DMEM with 10% of fetal bovine serum, 37 degree C. and 5% CO2 incubator. The monolayer culture was split at a 1:4 ratio or harvested to perform experiments when confluence was 70-80%. Adjust the density of the cells to […] and inoculate the cells on a 96 well plate.
H2O2 injury (Model) group, no SAC analogues treatment, under H2O2 200 μmol/L for 2 hours.
PAG group, PAG 10^−4/mol/L
SPRC dosage groups: SPRC 1E-7, SPRC 1E-6, SPRC 1E-5, the cell groups were treated with SPRC dosages of 10^−7 mol/L, 10^−6 mol/L, 10^−5 mol/L respectively.
SPRC dosage+PAG groups: the cell group was treated with SPRC dosages of 10^−5 mol/L and PAG 10^−4 mol/L.
The cell samples (10^6 cells/sample) from each group were lysed under sterilized condition, and LDH contents in each samples were tested by pyruvic acid production method.

Bcl-2 mRNA = experiment: RT-PCR of Bcl-2 mRNA in left ventricle; format: in vivo, SD rats; settings: MI rats, 50 mg/Kg/day, p>0.05
Source text: as §1, §4

rats following MI injury [6] = experiment: Serum CK in rats (sham or MI); format: in vivo, SD rats; settings: Sham rats; 50 mg/Kg/day intraperitoneal
Experimental: as §1, §2

Bcl-2 = experiment: Western blot of Bcl-2 protein in left ventricle; format: in vivo, SD rats; settings: MI rats, 50 mg/Kg/day, p<0.01
Source text: as §1

H9c2 cells [7] = experiment: Catalase activity in H2O2 injured H9c2 cells; format: cell-based; settings: SPRC treatments
Source text: as §3

C#CCSC[C@H](N)C(=O)O [SPRC, S-propargyl-cysteine]
SOD (rats following MI injury [1]; MI rats, 48 h after MI): 113.8 ± 1.5 U/ml | SOD (rats following MI injury [1]; Sham rats): 161.2 ± 3.8 U/ml | ST-segment elevation in ECG (rats following MI injury [2]): less elevated ST-segment | endogenous H2S level (H9c2 cells [3]): elevated | apoptosis of H9c2 cells (H9c2 cells [4]): effective on inhibiting apoptosis of H9c2 cells | Bax gene expression (Bax mRNA): down regulated | LDH Leakage (H9c2 cells [5]; SPRC High Dose 10^−5 mol/L): 43.9 ± 3.0 % | LDH Leakage (H9c2 cells [5]; SPRC Low Dose 10^−7 mol/L): 51.4 ± 1.8% | LDH Leakage (H9c2 cells [5]; SPRC middle Dose 10^−6 mol/L): 50.0 ± 2.6 % | LDH leakage compared with model group (H9c2 cells [5]; H2O2 injured H9c2, SPRC groups (10^−7 to 10^−5 mol/L)): less LDH leakage than that of model group | Bcl-2 gene expression (Bcl-2 mRNA): no significant differences | CK (rats following MI injury [6]): 0.251 ± 0.032 U/ml | Bcl-2 protein expression (Bcl-2): up-regulated | catalase activity (H9c2 cells [7]): elevated
